{
  "source": "patent US20220372430A1",
  "about": "“PROTISTS ENRICHED WITH LIPIDS RICH IN POLYUNSATURATED FATTY ACIDS” (BIOREA, priority 2015, published 2022)",
  "key": {"[1]": {"tested_on": "Crypthecodinium cohnii", "settings": "n-dodecane (oxygen carrier) added to culture medium of Crypthecodinium cohnii; cited from earlier work"}, "[2]": {"tested_on": "Crypthecodinium cohnii CCMP 316", "test": "Culture of Crypthecodinium cohnii in medium containing selenomethionine; fatty acid profile and total lipids", "assay_type": "cell-based", "protocol": "The total concentration of biomass was monitored by measuring the dry mass (filtration on GFC filter, Whatman, then drying in an oven under vacuum, 70° C. and −0.8 bar (80 kPa), for 24 h minimum before weighing). 10^7 cells/mL were extracted in order to quantify the total lipids. The method for extracting lipids is known to a person skilled in the art and is as described by the publication “Bligh E. G. & Dyer W. J., A rapid method of total lipid extraction and purification, Can. J. Biochem. Physiol 37 1959 911-917”, this method having been slightly adapted for microalga cells. Thus, for each measurement, approximately 10 mL of culture (biomass and medium), freshly sampled, was washed with demineralized water so as to remove the extracellular salts before lyophilization, then placed in a glass tube and centrifuged for 10 mins at 3600 g and at 4° C. After centrifugation, the supernatant was removed and the pellet containing the cells was lyophilized. Extraction was carried out with 6 mL of a monophasic CHCl3/MeOH (chloroform/methanol) mixture in proportions of 2/1 (V/V). In order to ensure complete extraction of the lipids, the tube was kept under stirring on a rocker for 6 hours in darkness, then stored at −20° C. before being analyzed by GC-FID (gas chromatography with flame ionization detection) in order to determine the quantity and the profiles of the total fatty acids extracted.\nIt was produced in the same way as in Example 1, except that the protist is Crypthecodinium cohnii instead of Schizochytrium limacinum, and that a single source of selenium was used: selenomethionine (“SeMet”).\nCrypthecodinium cohnii is a protist, and more precisely a heterotrophic microalga. The strain Crypthecodinium cohnii CCMP 316 was obtained from the NCMA bank (https://ncma.bigelow.org).\nThe results obtained are shown in FIG. 4 which gives respectively, for Crypthecodinium cohnii after incubation for 187 h, the percentage of compound in the total lipids on the y-axis, for each of the compounds (PUFA, DHA and SFA) shown on the x-axis, in the presence of selenomethionine (reference “With SeMet”), or in the absence of a selenium-containing compound (reference “Without Se”)."}, "[3]": {"tested_on": "Schizochytrium limacinum", "settings": "added exogenously to the culture medium of Schizochytrium, in particular Schizochytrium limacinum; cited from earlier work"}, "[4]": {"tested_on": "Schizochytrium limacinum ATCC-MYA1381", "test": "Culture of Schizochytrium limacinum in medium with a selenium-containing compound; fatty acid profile of total lipids by GC-FID", "assay_type": "cell-based", "settings": "5 mg of selenium/L in culture medium, incubation 187 h", "protocol": "A strain of Schizochytrium limacinum ATCC-MYA1381 was obtained from the ATCC bank (www.atcc.org).\nThe growth characteristics as well as the production of lipids by Schizochytrium limacinum were measured in the presence of different forms of selenium and compared in the absence of such additives (control referenced “Without Se” in the figures).\nPre-culture of the strain Schizochytrium limacinum ATCC-MYA1381 was carried out in standard liquid medium, the composition of which is given in Table 1. To this end, starter cultures of 50 mL were started in a 250 mL Erlen flask from a colony isolated on 633 M3 chytrid agar (www.atcc.org) and cultured at 25° C.±1° C. in heterotrophy for 48 h in this standard liquid medium. The 100 mL inoculum is then started in a 500 mL Erlen flask from these “starter” cultures at an initial concentration of 1.0×10^6 cells/m/L in the same culture conditions as the latter for 4 days. The cultures were continuously aerated by orbital stirring at 100 rpm (“revolutions per minute”).\nThe cultures for enrichment with selenium-containing compounds were started from the inoculum at an initial concentration of 1.0×10^6 cells/mL for a final volume of 400 mL in a 2.0 L Erlen flask at 25° C.±1° C. in heterotrophy for 187 h.\nThe cultures were continuously aerated by orbital stirring at 100 rpm. […]\nThe total concentration of biomass was monitored by measuring the dry mass (filtration on GFC filter, Whatman, then drying in an oven under vacuum, 70° C. and −0.8 bar (80 kPa), for 24 h minimum before weighing). 10^7 cells/mL were extracted in order to quantify the total lipids. […] In order to ensure complete extraction of the lipids, the tube was kept under stirring on a rocker for 6 hours in darkness, then stored at −20° C. before being analyzed by GC-FID (gas chromatography with flame ionization detection) in order to determine the quantity and the profiles of the total fatty acids extracted. […]"}},
  "data": [
    {"compound": "CCCCCCCCCCCC", "note": "[n-dodecane]", "values": [
      {"measurement": "production of DHA, of total lipids", "setting": "[1]", "value": 51, "unit": "%"}
    ]},
    {"compound": "C[Se]CC[C@H](N)C(=O)O", "note": "[selenomethionine]", "values": [
      {"measurement": "percentage of DHA in the total lipids", "setting": "[2]; 5 mg/L of selenium in culture medium, incubation 187 h, control without Se 24%", "value": 34, "unit": "%"},
      {"measurement": "percentage of PUFA in the total lipids", "setting": "[2]; 5 mg/L of selenium in culture medium, incubation 187 h, control without Se 25%", "value": 35, "unit": "%"},
      {"measurement": "percentage of SFA in the total lipids", "setting": "[2]; 5 mg/L of selenium in culture medium, incubation 187 h, control without Se 64%", "value": 53.5, "unit": "%"},
      {"measurement": "increase in total lipid content in the dry biomass relative to the control medium", "setting": "[2]; selenium-containing culture medium versus control medium", "value": 34, "unit": "%"}
    ]},
    {"compound": "C[N+](C)(C)CC(=O)[O-]", "note": "[glycine betaine]", "values": [
      {"measurement": "fermentation yield of polyunsaturated fatty acids", "setting": "[3]", "value": "significantly increase"}
    ]},
    {"compound": "O=[Se](O)O", "note": "[selenite, sodium selenite]", "values": [
      {"measurement": "percentage of DHA in the total lipids", "setting": "[4]; control without Se 41%", "value": 54, "unit": "%"},
      {"measurement": "percentage of SFA in the total lipids", "setting": "[4]; control without Se 44%", "value": 26, "unit": "%"},
      {"measurement": "percentage of PUFA in the total lipids", "setting": "[4]; control without Se 53%", "value": 73, "unit": "%"}
    ]},
    {"compound": "OC[C@H]1O[C@H](O[C@H]2O[C@H](CO)[C@@H](O)[C@H](O)[C@H]2O)[C@H](O)[C@@H](O)[C@@H]1O", "note": "[trehalose]", "values": [
      {"measurement": "fermentation yield of polyunsaturated fatty acids", "setting": "[3]", "value": "significantly increase"}
    ]}
  ]
}
